Literature values, collected in patent US20070149409A1, “Pesticide formulations with substituted biopolymers and organic polymers for improving residual activity, droplet size, adherence and rainfastness on leaves and reduction in soil leaching” (priority 2003, published 2007).

Compound | pK / pKa
Nc1nc[nH]n1 [Amitrole] | 9.8
CP(=O)(O)CCC(N)C(=O)O (centres unmarked) [glufosinate] | 9.8
CCCC(Cn1cncn1)c1ccc(Cl)cc1Cl (centres unmarked) [penconazole] | 1.5
CCCOC(=O)NCCCN(C)C [propamocarb] | 4.9
Indole acetic acid | 4.7
